Results on eight molecules are retold here after patent publication US5661129A, “Organic nitrates containing a disulfide group as cardiovascular agents” (Schwarz Pharma AG, priority 1993, dated 1997).

For experiment [1] the following is noted: continuous intake of high doses; classical organic nitrates and EP compounds; cited from earlier work.
Experiment [2] concerns arterial, central venous and pulmonary artery blood pressure in a conscious dog. Kind of experiment: Effects on blood pressure in a conscious dog. It is filed as in vivo. The arrangement: unit not given here. Conditions: intravenous, 13.4 μg/kg disulphide compounds. On the procedure:
The SAP was measured using a tip catheter transducer inserted into the aorta via the femoral artery, and the CVP and the PAP were measured using a Swan-Ganz catheter which was inserted via the left jugular vein and whose catheter tips were advanced as far as the pulmonary artery and the right atrium respectively and through whose lumens the particular pressure was passed to Statham® pressure transducers. To quantify the lowering of blood pressure elicited by the compound according to the invention, the areas under the curves (AUC) of the recorded changes in blood pressure were determined. Table 2 contains the AUC values for the relevant lowering of blood pressure after intravenous administration of 13.4 μg/kg of the disulphide compounds according to the invention and after intravenous administration of 26.8 μg/kg isosorbide 5-mononitrate (5-ISMN).

Experiment [3] has as its system isolated rat aortic rings. Kind of experiment: Vasorelaxation in vitro on isolated rat aortic rings precontracted with phenylephrine. It is filed as cell-based. As to conditions: rat aortic rings precontracted with 2×10^-7 mol/l phenylephrine; cumulative addition; n = 3-6; read-out: EC50 (concentration which leads to a 50% relaxation of the precontracted vascular ring). From the text: The vasorelaxant effect of the compounds of the general formula I was investigated in vitro on isolated rat aortic rings. For this purpose, rats were anaesthetized and then the thoracic aorta was removed, freed of adipose and adventitious tissue and divided into annular segments about 5 mm wide. The aortic rings were transferred into temperature-controlled baths containing Tyrodes' solution through which 5% CO2 /95% O2 was passed, and were subjected to a preload of 2 g. While continuously recording the change in force, the vascular rings were precontracted after equilibration with 2×10^-7 mol/l phenylephrine for 90 minutes. After a stable contraction level was reached, the nitrato compounds were cumulatively added to the vessel bath liquid, the next higher concentration in each case being added only after a stable relaxation level had been reached. The concentration of the particular compound which leads to a 50% relaxation of the precontracted vascular ring (EC50) was found from the resulting concentration-effect plots. Table 1 contains the EC50 values found in this way for selected exemplary compounds.

In the case of `O=[N+]([O-])OCC(CO[N+](=O)[O-])O[N+](=O)[O-]` [glycerol trinitrate], the “nitrate tolerance (attenuation of the effect)” value in experiment [1] is “distinct attenuation of the effect, nitrate tolerance”.
For `CC(C)(CO[N+](=O)[O-])C(=O)N[C@@H](CSSC[C@H](NC(=O)C(C)(C)CO[N+](=O)[O-])C(=O)N1CCCCC1)C(=O)N1CCCCC1` [N,N'-di(3-nitratopivaloyl)-L-cystinedipiperidide], in experiment [2], the “AUC (CVP), lowering of central venous blood pressure” value (shortened to “AUC (CVP), lowering”) is on record as 36.9; the “AUC (PAP), lowering of pulmonary artery blood pressure” value (“AUC (PAP), lowering” for short) came to 18.5; the “AUC (SAP), lowering of systolic arterial blood pressure” value (from here on “AUC (SAP), lowering”) is listed as 10.4. For the same molecule, the EC50 in experiment [3] was found to be 100 µM.
In the case of `CNC(=O)[C@H](CSSC[C@H](NC(=O)C(C)(C)CO[N+](=O)[O-])C(=O)NC)NC(=O)C(C)(C)CO[N+](=O)[O-]` [N,N'-di(3-nitratopivaloyl)-L-cystine-di(N-methylamide)], in experiment [2], the “AUC (CVP), lowering” value was found to be 33.7; the “AUC (PAP), lowering” value is 3.5; the “AUC (SAP), lowering” value is 41.9. The EC50 in experiment [3] is 24 µM.
Consider `CC(C)(C)OC(=O)[C@H](CSSC[C@H](NC(=O)C(C)(C)CO[N+](=O)[O-])C(=O)OC(C)(C)C)NC(=O)C(C)(C)CO[N+](=O)[O-]` [N,N'-di(3-nitratopivaloyl)-L-cystine di-tert.-butyl ester], for which, in experiment [3], the EC50 was found to be 59 µM.
Regarding `CC(C)(CO[N+](=O)[O-])C(=O)N[C@@H](CSSC[C@H](NC(=O)C(C)(C)CO[N+](=O)[O-])C(N)=O)C(N)=O` [N,N'-di(3-nitratopivaloyl)-L-cystinediamide], in experiment [2], the “AUC (CVP), lowering” value is on record as 46.9; the “AUC (PAP), lowering” value turned out to be 28.1; the “AUC (SAP), lowering” value is recorded as 55.3. In addition, the EC50 in experiment [3] is 30 µM.
On the same counts, the results for `CCOC(=O)[C@H](CSSC[C@H](NC(=O)C(C)(C)CO[N+](=O)[O-])C(=O)OCC)NC(=O)C(C)(C)CO[N+](=O)[O-]` [N,N'-di(3-nitratopivaloyl)-L-cystine diethyl ester] are 85.7, 12.0, 94.1 and 1.5 µM.
For the molecule `CC(C)(CO[N+](=O)[O-])C(=O)N[C@@H](CSSC[C@H](NC(=O)C(C)(C)CO[N+](=O)[O-])C(=O)O)C(=O)O` [N,N'-di(3-nitratopivaloyl)-L-cystine], in experiment [2], the “AUC (CVP), lowering” value is recorded as 67.9; the “AUC (PAP), lowering” value amounted to 2.7; the “AUC (SAP), lowering” value was found to be 17.3. Moreover, the EC50 in experiment [3] turned out to be 120 µM.
With `O=[N+]([O-])O[C@@H]1CO[C@H]2[C@@H]1OC[C@@H]2O` [Example 5-ISMN, isosorbide 5-mononitrate, reference compound], the “nitrate tolerance (attenuation of the effect)” value in experiment [1] is “distinct attenuation of the effect, nitrate tolerance”.
